Assay results published in US6916845B2, “Method for prevention and treatment of male and female sexual dysfunction” (priority 1999, dated 2005).
Where two headings read alike, the source gives them in different places. Marks after values point to notes of the source that are not given here.

Columns and labels:
[1] = system: SD rat; assay type: in vivo; conditions: for LDso: once subcutaneously, after 7 days
Description: To investigate an acute toxicity of icariin, icariin was administered to SD rat. Total of 50 rats divide into 5 groups randomly and each group included 5 male and 5 female rats, respectively. The maximum dosage group for 3.0 g/kg, medium dosage group for 2.0 g/kg, sub-medium group for 1.0 g/kg and the minimum dosage group for 0.5 g/kg and comparative group for physiological saline solution only. Each of the drugs was once administered subcutaneously. After 7 days, it was shown that LDso of male was 1.88 g/kg and female was 1.96 g/kg.

[2] = system: rabbit's CC smooth muscle; assay: Relaxation of PHE pre-contracted corpus cavernosum smooth muscle strips in organ chamber; assay type: cell-based
Description: Sixty adults male New Zealand white rabbits(Weight: 2.5-3.0 kg) were used. Rabbits were anesthesia with sodium pentobarbital(50 mg/kg), penis was removed and corpus cavernous tissue were carefully isolated and made into 2×2×6 mm muscle strips for isometric tension was measured in organ chamber in vitro study with polygraph(MP 100 WS:Biopac systems, USA). CC muscle strip was fixed in 10 ml organ chamber containing Tyrode solution and continuously supplied with mixed gas(95% O2 and 5% CO2) and keep temperature at 37° C. The initial resting tensions of muscle strips were set at 2 g and tissue was allowed to equilibrate for 1.5-3.0 hours. Sub-maximal contractile responses to phenylepherine(PHE 5×10^-6 M) were observed and optimal isometric tension was determined. To evaluate the relaxation effects of icariin (the other components magnoflorine, querectin, epimedin A, B and C as the controls) on CC muscle strips, investigated the relaxation effects of different dosage of icariin on muscle strips pre-contracted by PHE. And to investigate the pharmaceutical action mechanism, the effects of […] Nω-nitric-L-arginine(L-NNA), guanylate cyclase antagonist methylene blue and pyrogallol, soluble guanylate cyclase inhibitor 1H-[1,2,4]oxadiazolo[4,3,-a]quinoxalin-1-one (ODQ) on the relaxation effects of icariin on CC.

[3] = system: adult male rat; assay: Intracavernosal press (ICP) changes after intracavernosal administration and cavernous nerve electrical stimulation; assay type: in vivo; conditions: CN stimulation 10 minutes later
Description: (§1) Twenty-four male, adult Wistar rats(weight:300-350 g) were used. After anesthetization, the left carotid artery was cannulated to monitor mean arterial pressure (MAP). Bipolar electrodes were positioned on the cavernous nerve (CN); the right cavernous body was cannulated with 26 G needle connected with Biopack MP100 to monitor ICP changes. After intracavemosal administration of 100 μl different concentration Icariin or Reserpine (10^−8M to 10^−4M) respectively, the CN was electrically stimulated (ES) 10 minutes later and ICP and MAP were monitored. In order to investigate the possible mechanism of the effect of icariin on ICP changes, 100 μl different concentration guanylate cyclase inhibitor ODQ (10^−8M-10^−4M) were intracavemosal administrated 10 minutes after Icariin (100 μl 10^−4M) administration into CC, and then the ICP was measured during erection, which was, followed the ES.

[4] = system: adult male rat; conditions: in vivo
Description: as §1

[5] = system: cGMP formation in rabbit corpus cavernosum; assay: cGMP formation in corpus cavernosum of penis stimulated with SNP, radioimmunoassay; assay type: cell-based; conditions: in the presence of SNP
[6] = system: cAMP formation in rabbit corpus cavernosum; assay: cAMP formation in corpus cavernosum of penis stimulated with SNP, radioimmunoassay; assay type: cell-based
[7] = biological target: T1, PDE5 isolated from human platelets (Homo sapiens, UniProt O76074); assay: Inhibition of cGMP specific PDE5, two-step radioisotope procedure; assay type: biochemical
T1 construct: PDE5 and PDE4 were isolated from human platelets and liver tissue using a Pharmacia FPLC system and Mono Q column; from tissue; host or cells: human platelets
Description: (§2) PDE5 and PDE4 were isolated from human platelets and liver tissue using a Pharmacia FPLC system and Mono Q column. The cyclic nucleotide PDE5/PDE4 activities in FPLC fractions were determined using a modification of the two-step radioisotope procedure ([^3H]GMP/[^3H]AMP).

[8] = system: PDE4 isolated from human liver tissue; assay: Inhibition of cAMP specific PDE4, two-step radioisotope procedure; assay type: biochemical
Description: as §2

[9] = system: cGMP formation in clitoris CC of female rabbits; assay: cGMP formation in CC of clitoris stimulated with SNP, radioimmunoassay; assay type: cell-based, rabbit
[10] = system: castrated male Wistar rats; assay: Sexual activities (mating behavior) in castrated rat model after long-term oral administration; assay type: in vivo; conditions: Group C and D, oral icariin for 3 months, n=10/12
Description: (§3) Male Wistar rats(300-350 g)(n=24) randomly divide into 4 Groups; Group A for control; Group B for castrated and administration normal saline; Group C for castrated and oral administration Icariin […]; Group D for castrated and oral administration Icariin (5 mg/kg) for 3 months. After observe mating behavior, the animal was killed, the penis was excised rapidly, and cut into four parts. One of them used for immuohistochemical stain, the others was socked into RNAlater and stored in −70 condition. nNOS, eNOS, iNOS mRNA were semi-quantified by RT-PCR, β-actin as a controls. Specificity of RT-PCR products was confirmed by sequencing procedure, with-assay and between-assay variation was carried out respectively.

[11] = system: iNOS mRNA; assay: iNOS mRNA expression in penis of castrated rat model by RT-PCR; assay type: in vivo; conditions: for Mean conc./area (iNOS) / Ratio (iNOS/β-actin): castrated, 3 months
Description: as §3

[12] = system: nNOS mRNA; assay: nNOS mRNA expression in penis of castrated rat model by RT-PCR; assay type: in vivo; conditions: for Mean conc./area (nNOS) / Ratio (nNOS/β-actin): castrated, 3 months
Description: as §3

## COc1ccc(-c2oc3c(CC=C(C)C)c(O[C@@H]4O[C@H](CO)[C@@H](O)[C@H](O)[C@H]4O)cc(O)c3c(=O)c2O[C@@H]2O[C@@H](C)[C@H](O)[C@@H](O)[C@H]2O)cc1 [Icariin, icariin]
[1]; SD rat, subcutaneous
  acute toxicity: low toxicity
[1]; female SD rat
  LDso: 1960 mg/kg
[1]; male SD rat
  LDso: 1880 mg/kg
[2]; Oryctolagus cuniculus, read-out: EC50 on the relaxation effects of CC smooth muscle
  EC50: 467 µM
[2]; icariin 10^−4M
  relaxation effects on pre-contracted CC muscle strips: 23.12 ± 1.36%
[2]; icariin 10^−5M
  relaxation effects on pre-contracted CC muscle strips: 4.42±1.08%
[2]; icariin 10^−6M
  relaxation effects on pre-contracted CC muscle strips: 1.23±0.82%
[2]; icariin 10^−7M
  relaxation effects on pre-contracted CC muscle strips: 0.08±0.04%
[3]; 100 μl 10^−4M intracavernosal
  Increase ICP: 58.01 ± 5.78%
[3]; 100 μl 10^−5M intracavernosal
  Increase ICP: 30.48 ± 3.06%
[3]; 100 μl 10^−6M intracavernosal
  Increase ICP: 10.82 ± 1.06%
[3]; 100 μl 10^−7M intracavernosal
  Increase ICP: 5.53 ± 0.69%
[4]
  influence on MAP: no obviously influence
[5]; 10^−3M
  cGMP concentration changes: 10.43 ± 1.49 fmol/mg/min
[5]; 10^−4M
  cGMP concentration changes: 10.82 ± 1.58 fmol/mg/min
[5]; 10^−5M
  cGMP concentration changes: 8.92 ± 1.67 fmol/mg/min
[5]; 10^−6M
  cGMP concentration changes: 8.66 ± 2.03 fmol/mg/min
[6]
  influence on cAMP levels: no significantly influenced
[7]
  IC50: 0.432 µM
  inhibiting potency on PDE5 weaker than that of Sildenafil: 108.10 times
[7]; ratio of IC50 PDE4/PDE5
  specificity of inhibition PDE5 compared to PDE4: 170.14 times
[8]
  IC50: 73.5 µM
[9]
  cGMP concentration in clitoris CC: significantly increased
[9]; Oryctolagus cuniculus, read-out: EC50 (cGMP formation, CC of clitoris)
  EC50: 3.16 µM
[10]
  castrated rats restored sexual activities: 83.3%
[11]; Group C and D, p<0.05
  iNOS mRNA compared to control Group B: significantly increased
[11]; Group C, oral Icariin (mg/kg)
  Mean conc./area (iNOS): 17.28
  Ratio (iNOS/β-actin): 0.50*
[11]; Group D, oral Icariin 5 mg/kg
  Mean conc./area (iNOS): 23.20
  Ratio (iNOS/β-actin): 0.74*
[12]; Group C and D, p<0.05
  nNOS mRNA compared to control Group B: significantly increased
[12]; Group C, oral Icariin (mg/kg)
  Mean conc./area (nNOS): 44.60
  Ratio (nNOS/β-actin): 0.82*
[12]; Group D, oral Icariin 5 mg/kg
  Mean conc./area (nNOS): 36.40
  Ratio (nNOS/β-actin): 1.08*
